Experimental data taken from patent US20250304549A1, “HYDROXYAMIDE DERIVATIVE AND USE THEREOF” (SICHUAN HUIYU PHARMACEUTICAL CO., LTD., priority 2022, published 2025).
Where a name gives a salt, the structure may show the parent alone.

Key:
[1] = molecular target: LSD1 (Homo sapiens (Human), UniProt O60341); experiment: In vitro enzyme inhibition assay - LSD1 (HTRF); type: biochemical
[2] = molecular target: pan-HDAC; experiment: In vitro enzyme inhibition assay - HDAC (HDAC-Glo I/II), pan-HDAC; type: biochemical
Method in brief: (§1)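 Eight compound concentrations (5-fold gradient; 1 mM DMSO stock) were assayed by HDAC-Glo I/II luminescence. IC50 was obtained by four-parameter fitting.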

[3] = test system: NCI-H1417 cells; experiment: In vitro cell inhibition assay - H1417 cell proliferation (CellTiter-Glo); type: cell-based
Method in brief: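 Cells exposed to 8 compound concentrations (5-fold dilutions) in BEGM with 10% FBS for 7 days at 37° C., 5% CO2. Viable cells measured by CellTiter-Glo luminescence; inhibition versus no-inhibitor and no-cell controls, IC50 fitted.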

[4] = test system: NCI-H69 cells; experiment: In vitro cell inhibition assay - NCI-H69 cell proliferation (CellTiter-Glo); type: cell-based
Method in brief: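 NCI-H69 cells seeded at 1×10^3 per well overnight, then given 8 compound concentrations (5-fold dilutions) in RPMI-640 with 20% FBS for 7 days at 37° C., 5% CO2. Viable cells by CellTiter-Glo luminescence; IC50 fitted from inhibition rate versus no-inhibitor and no-cell controls.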

[5] = test system: DU145 cells; experiment: In vitro cell inhibition assay - DU145 cell proliferation (CellTiter-Glo); type: cell-based
Method: 5. In Vitro Cell Inhibition Assay—DU145 Cell Proliferation
The inhibitory effect of the compounds on cell proliferation was assessed by detecting the number of viable cells using the CellTiter-Glo® reagent. DU145 cells in the logarithmic growth phase were collected and inoculated into transparent bottom 96-well plates at a density 1×10^3 cells per well with 100 μL medium, and incubated at 37° C., 5% CO2 overnight. The compounds were sequentially diluted in a 5-fold concentration gradient with DMSO to obtain 8 different concentrations. These were then diluted with RPMI-640 (containing 10% FBS) cell culture medium to obtain the compound working solution (2×), which was added to the cell supernatant at 100 μL per well. The incubation continued for 6 days at 37° C., 5% CO2. The plate was then removed and equilibrated at room temperature (25° C.) along with the CellTiter-Glo® mixing reagent for 10-30 minutes. After centrifugation, 120 μL of the culture medium was carefully aspirated from each well, and 60 μL of CellTiter-Glo® reagent was added. The cells were thoroughly mixed with the CellTiter-Glo® mixing reagent using a microplate shaker for 2 min. and then incubated at room temperature for 10 min. The 96-well plate was subsequently placed on a multifunctional microplate reader to record the Luminescence values (RLU).
The inhibition rate was calculated using the following formula: […]
Note: ‘Negative’ refers to the group without inhibitors; ‘Blank’ refers to the group without cells.
The IC50 value was determined by fitting the inhibition rate by GraphPad Prism software.

[6] = molecular target: HDAC8 (Homo sapiens (Human), UniProt Q9BY41); experiment: In vitro enzyme inhibition assay - HDAC (HDAC-Glo I/II), HDAC8; type: biochemical; conditions: read-out: HDAC IC50 (nM) HDAC 8
Sequence of HDAC8 (Q9BY41 whole entry): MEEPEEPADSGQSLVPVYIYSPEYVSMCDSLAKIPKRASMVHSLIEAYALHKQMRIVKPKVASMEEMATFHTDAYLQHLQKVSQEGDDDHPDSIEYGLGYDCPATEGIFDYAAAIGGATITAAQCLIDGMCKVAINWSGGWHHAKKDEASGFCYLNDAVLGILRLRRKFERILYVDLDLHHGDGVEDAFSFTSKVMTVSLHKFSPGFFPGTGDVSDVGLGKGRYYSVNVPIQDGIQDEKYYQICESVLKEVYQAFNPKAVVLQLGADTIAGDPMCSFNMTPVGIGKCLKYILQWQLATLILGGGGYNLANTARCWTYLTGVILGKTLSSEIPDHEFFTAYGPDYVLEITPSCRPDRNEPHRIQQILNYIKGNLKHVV
Method in brief: as §1

[7] = Homo sapiens, NCI-H1417, H1417 small cell lung cancer cell proliferation
[8] = Homo sapiens, NCI-H69, H69 small cell lung cancer cell proliferation
[9] = Homo sapiens, DU-145, Du145 prostate cancer cell proliferation

IC50 [1] [nM] | IC50 [2] [nM] | IC50 [3, 7] [nM] | IC50 [4, 8] [nM] | IC50 [5, 9] [nM] | IC50 [6] [nM] | IC50 ([3]; H1417 small cell lung cancer cell proliferation) [nM] | IC50 ([4]; H69 small cell lung cancer cell proliferation) [nM] | IC50 ([5]; Du145 prostate cancer cell proliferation) [nM] | SMILES
36 | 41.3 | 762 | 2540 | 2960 |  |  |  |  | Cc1ccc(-c2c(OCCCCCCC(=O)NO)cc(N3CCC(N)CC3)nc2-c2ccc(C#N)c(F)c2)cc1 [Example 7, 7-[(6-(4-Aminopiperidin-1-yl)-2-(4-cyano-3-fluorophenyl)-3-(4-methylphenyl)pyridin-4-yl)oxy]-N-hydroxyheptanamide-hydrochloride]
18.6 | 21.7 | 501 | 2530 | 2850 |  |  |  |  | COc1ccc(-c2c(OCCCCCCC(=O)NO)cc(N3CCC(N)CC3)nc2-c2ccc(C#N)c(F)c2)cc1 [Example 8, 7-[(6-(4-Aminopiperidin-1-yl)-2-(4-cyano-3-fluorophenyl)-3-(4-methoxyphenyl)pyridin-4-yl)oxy]-N-hydroxyheptanamide trifluoroacetate]
 | 116 | > 1000 | 2360 | 2000 |  |  |  |  | N#Cc1ccc(-c2nc(N3CCC(N)CC3)cc(OCCCCCCC(=O)NO)c2-c2ccc(Cl)cc2)cc1F [Example 11, 7-((6-(4-Aminopiperidin-1-yl)-3-(4-chlorophenyl)-2-(4-cyano-3-fluorophenyl)pyridin-4-yl)oxy)-N-hydroxyheptanamide hydrochloride]
1.95 | 3.32 | 332 | 775 | 2770 |  |  |  |  | CN(C)c1ncc(-c2c(OCCCCCCC(=O)NO)cc(N3CCC(N)CC3)nc2-c2ccc(C#N)c(F)c2)cn1 [Example 13, 7-((6-(4-Aminopiperidin-1-yl)-2-(4-cyano-3-fluorophenyl)-3-(2-(dimethylamino)pyrimidin-5-yl)pyridin-4-yl)oxy)-N-hydroxyheptanamide formate]
 |  | > 1000 | 2520 | 3210 |  |  |  |  | Cn1cc2cc(-c3c(OCCCCCCC(=O)NO)cc(N4CCC(N)CC4)nc3-c3ccc(C#N)c(F)c3)ccc2n1 [Example 14, 7-((6-(4-Aminopiperidin-1-yl)-2-(4-cyano-3-fluorophenyl)-3-(2-methyl-2H-indazol-5-yl)pyridin-4-yl)oxy)-N-hydroxyheptanamide formate]
33.2 | 4.23 | > 1000 | 3640 | 3700 |  |  |  |  | COc1ccc(-c2c(OCCCCCCC(=O)NO)cc(N3CCC(N)CC3)nc2-c2ccc(C#N)c(C)c2)cc1O [Example 16, 7-((6-(4-Aminopiperidin-1-yl)-2-(4-cyano-3-methylphenyl)-3-(3-hydroxy-4-methoxyphenyl)pyridin-4-yl)oxy)-N-hydroxyheptanamide hydrochloride]
0.13 |  | 1.29 | 1680 | 5060 |  |  |  |  | COc1ccc(-c2cnc(N3CCC(NCc4ccc(C(=O)NO)cc4)CC3)c(C#N)c2-c2ccc(C#N)c(F)c2)cc1O [Example 41, 4-(((1-(3-Cyano-4-(4-cyano-3-fluorophenyl)-5-(3-hydroxy-4-methoxyphenyl)pyridin-2-yl)piperidin-4-yl)amino)methyl)-N-hydroxybenzamide hydrochloride]
1.18 | 76.6 | 1.44 | 214 | 262 | 26.5 |  |  |  | COc1ccc(-c2c(-c3ccc(C#N)c(F)c3)nc(N3CCC(NCc4ccc(/C=C/C(=O)NO)cc4)CC3)n3ccnc23)cc1O [Example 70, (E)-3-(4-(((1-(7-(4-Cyano-3-fluorophenyl)-8-(3-hydroxy-4-methoxyphenyl)imidazo[1,2-c]pyrimidin-5-yl)piperidin-4-yl)amino)methyl)phenyl)-N-hydroxyacrylamide formate]
 |  | 661 | 121 | 320 |  |  |  |  | COc1cc(-c2cnc(N3CCC(NCc4ccc(/C=C/C(=O)NO)cc4)CC3)c(F)c2-c2ccc(C#N)c(F)c2)ccc1O [Example 77, (E)-3-(4-(((1-(4-(4-Cyano-3-fluorophenyl)-3-fluoro-5-(4-hydroxy-3-methoxyphenyl)pyridin-2-yl)piperidin-4-yl)amino)methyl)phenyl)-N-hydroxyacrylamide formate]
 |  | 11.5 | 268 | 352 |  |  |  |  | COc1ccc(-c2cnc(N3CCC(Nc4ccc(/C=C/C(=O)NO)cc4)CC3)c(C#N)c2-c2ccc(C#N)c(F)c2)cc1O [Example 82, (E)-3-(4-((1-(3-Cyano-4-(4-cyano-3-fluorophenyl)-5-(3-hydroxy-4-methoxyphenyl)pyridin-2-yl)piperidin-4-yl)amino)phenyl)-N-hydroxyacrylamide formate]
 |  | 623 | 906 | 2630 |  |  |  |  | COc1cc(-c2cnc(N3CCC(NCC4CCN(c5ccc(C(=O)NO)cc5)CC4)CC3)c(C#N)c2-c2ccc(C#N)c(F)c2)ccc1O [Example 91, 4-(4-(1-(3-Cyano-4-(4-cyano-3-fluorophenyl)-5-(4-hydroxy-3-methoxyphenyl)pyridin-2-yl)piperidin-4-yl)amino)methyl) piperidin-1-yl)-N-hydroxybenzamide formate]
 |  | 343 | 1280 | 2840 |  |  |  |  | COc1cc(-c2cnc(N3CCC(NCCCc4ccc(C(=O)NO)cc4)CC3)c(C#N)c2-c2ccc(C#N)c(F)c2)ccc1O [Example 93, 4-(3-(3-Cyano-4-(4-cyano-3-fluorophenyl)-5-(4-hydroxy-3-methoxyphenyl)pyridin-2-yl)piperidin-4-yl)amino)propyl)-N-hydroxybenzamide formate]
1.06 |  | 8.93 | 8.76 | 21 |  |  |  |  | N#Cc1ccc(-c2c(-c3ccc(F)c(O)c3)cnc(N3CCC(NCc4ccc(/C=C/C(=O)NO)cc4)CC3)c2C#N)cc1F [Example 97, (E)-3-(4-((1-(3-Cyano-4-(4-cyano-3-fluorophenyl)-5-(4-fluoro-3-hydroxyphenyl)pyridin-2-yl)piperidin-4-yl)amino)methyl) phenyl)-N-hydroxyacrylamide formate]
44.2 |  | 220 | 405 | 5190 |  |  |  |  | COc1ccc(-c2cnc(N3CCC(NCc4ccc(/C=C/C(=O)NO)cc4)CC3)c(C#N)c2-c2ccc(C#N)c(F)c2)c(O)c1O [Example 140, (E)-3-(4-(((1-(3-Cyano-4-(4-cyano-3-fluorophenyl)-5-(2,3-dihydroxy-4-methoxyphenyl)pyridin-2-yl)piperidin-4-yl)amino)methyl)phenyl)-N-hydroxyacrylamide formate]
1.72 |  | 31 | 95.8 | 129 |  |  |  |  | Cn1nnc2cc(-c3cnc(N4CCC(NCc5ccc(/C=C/C(=O)NO)cc5)CC4)c(C#N)c3-c3ccc(C#N)c(F)c3)ccc21 [Example 141, (E)-3-(4-(((1-(3-Cyano-4-(4-cyano-3-fluorophenyl)-5-(1-methyl-1H-benzo[d][1,2,3]triazol-5-yl)pyridin-2-yl)piperidin-4-yl)amino)methyl)phenyl)-N-hydroxyacrylamide formate]
153 |  |  |  |  |  | 255 | 440 | 658 | COc1ccc(-c2cnc(N3CCC(NCc4ccc(/C=C/C(=O)NO)cc4)CC3)c(C(F)(F)F)c2-c2ccc(C#N)c(F)c2)cc1O [Example 147, (E)-3-(4-(4-(4-Cyano-3-fluorophenyl)-5-(3-hydroxy-4-methoxyphenyl)-3-(trifluoromethyl)pyridin-2-yl)piperidin-4-yl)amino)methyl) phenyl)-N-hydroxyacrylamide formate]

SMILES | IC50 [1] [nM] | IC50 [2] [nM] | IC50 [3, 7] [nM] | IC50 [4, 8] [nM] | IC50 [5, 9] [nM] | IC50 [6] [nM] | IC50 ([3]; H1417 small cell lung cancer cell proliferation) [nM] | IC50 ([4]; H69 small cell lung cancer cell proliferation) [nM] | IC50 ([5]; Du145 prostate cancer cell proliferation) [nM]
COc1ccc(-c2cnc(N3CCC(CCc4ccc(/C=C/C(=O)NO)cc4)CC3)c(C#N)c2-c2ccc(C#N)c(F)c2)cc1O [Example 89, (E)-3-(4-(2-(1-(3-cyano-4-(4-cyano-3-fluorophenyl)-5-(3-hydroxy-4-methoxyphenyl)pyridin-2-yl)piperidin-4-yl)ethyl)phenyl)-N-hydroxyacrylamide] |  |  | > 1000 | 120 | 390 |  |  |  | 
